# Experimental data reported in the supplement of paper PMC8253809.
# Legend:
# SUDIPGXIII [1] = diffuse intrinsic pontine glioma line; assay: area under dose-response curve of % growth inhibition (log2 RLU vs DMSO / staurosporine), 1e-11 to 1e-4 M (% x log10 M); higher = more growth inhibition
# How it was run: (§1)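 A 10-point threefold dilution series, mean top concentration 35 μM, was applied in triplicate to patient-derived pHGG/DIPG lines and astrocytes on 1% Geltrex-coated 384-well plates for 7 days (3 days for iAstro) at 37 °C, 5% CO2. Per-plate % activity between solvent and positive controls was calculated from log2-transformed CellTiter-Glo luminescence. Area under the curve followed from the trapezoid rule on a log-logistic fit, or on a smoothing spline when the sigmoid fit failed.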
# iAstro [2] = astrocyte control; assay: as above
# How it was run: as §1
# SUDIPGXIX [3] = diffuse intrinsic pontine glioma line; assay: as above
# How it was run: as §1
# HGGX6 [4] = H3.3 G34R paediatric high-grade glioma line; assay: as above
# How it was run: as §1
# HGGX2 [5] = paediatric high-grade glioma line; assay: as above
# How it was run: as §1
# SUDIPGIV [6] = diffuse intrinsic pontine glioma line; assay: as above
# How it was run: as §1
# DIPGX37 [7] = H3.3 K27M diffuse intrinsic pontine glioma line; assay: as above
# How it was run: as §1
# SUDIPGXXI = diffuse intrinsic pontine glioma line; assay: as above
# How it was run: as §1
# SUDIPGXVII [8] = diffuse intrinsic pontine glioma line; assay: as above
# How it was run: as §1
# HABS [9] = astrocyte control; assay: as above
# How it was run: as §1
# HGGX39 [10] = paediatric high-grade glioma line; assay: as above
# How it was run: as §1
# DIPGX9 [11] = diffuse intrinsic pontine glioma line; assay: as above
# How it was run: as §1
# SUDIPGVI [12] = diffuse intrinsic pontine glioma line; assay: as above
# How it was run: as §1
# DIPGX29 [13] = H3.3 K27M diffuse intrinsic pontine glioma line; assay: as above
# How it was run: as §1
# DIPGX7 [14] = H3.3 K27M diffuse intrinsic pontine glioma line; assay: as above
# How it was run: as §1
# HGGX42 [15] = H3.3 G34R paediatric high-grade glioma line; assay: as above
# How it was run: as §1
# SUDIPGXIII [16] = assay: maximal growth inhibition (yFin) relative to DMSO / staurosporine; higher = more efficacious
# How it was run: (§2)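 A pin tool was used to add a 10-point threefold dilution series (mean top concentration 35 μM), in triplicate, to patient-derived pHGG/DIPG cell lines and astrocyte controls seeded on 384-well plates coated with 1% Geltrex. After 7 days at 37 °C and 5% CO2 (3 days for iAstro), CellTiter-Glo luminescence was log2-transformed, normalised on each plate to % activity relative to negative (solvent) and positive control wells, and pooled. EC50 and maximal response (yFin) were read from the three- or four-parameter log-logistic fit with the lowest AICc.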
# SUDIPGXIX [17] = assay: as above
# How it was run: as §2
# HGGX6 [18] = assay: as above
# How it was run: as §2
# SUDIPGIV [19] = assay: as above
# How it was run: as §2
# DIPGX37 [20] = assay: as above
# How it was run: as §2
# SUDIPGXVII [21] = assay: as above
# How it was run: as §2
# HABS [22] = assay: as above
# How it was run: as §2
# HGGX39 [23] = assay: as above
# How it was run: as §2
# DIPGX9 [24] = assay: as above
# How it was run: as §2
# SUDIPGVI [25] = assay: as above
# How it was run: as §2
# DIPGX29 [26] = assay: as above
# How it was run: as §2
# DIPGX7 [27] = assay: as above
# How it was run: as §2
# SUDIPGXIII [28] = assay: EC50 (inflection of fitted growth-inhibition curve) (log10 M)
# How it was run: as §2
# SUDIPGXIX [29] = assay: as above
# How it was run: as §2
# HGGX6 [30] = assay: as above
# How it was run: as §2
# SUDIPGIV [31] = assay: as above
# How it was run: as §2
# DIPGX37 [32] = assay: as above
# How it was run: as §2
# SUDIPGXVII [33] = assay: as above
# How it was run: as §2
# HABS [34] = assay: as above
# How it was run: as §2
# HGGX39 [35] = assay: as above
# How it was run: as §2
# DIPGX9 [36] = assay: as above
# How it was run: as §2
# SUDIPGVI [37] = assay: as above
# How it was run: as §2
# DIPGX29 [38] = assay: as above
# How it was run: as §2
# DIPGX7 [39] = assay: as above
# How it was run: as §2
# HGGX2 [40] = assay: maximal growth inhibition (yFin) relative to DMSO / staurosporine; higher = more efficacious
# How it was run: as §2
# HGGX42 [41] = assay: as above
# How it was run: as §2
# HGGX2 [42] = assay: EC50 (inflection of fitted growth-inhibition curve) (log10 M)
# How it was run: as §2
# HGGX42 [43] = assay: as above
# How it was run: as §2
# iAstro [44] = assay: maximal growth inhibition (yFin) relative to DMSO / staurosporine; higher = more efficacious
# How it was run: as §2
# iAstro [45] = assay: EC50 (inflection of fitted growth-inhibition curve) (log10 M)
# How it was run: as §2
smiles,measurement,setting,value
CC(C)c1cc(-c2n[nH]c(=O)n2-c2ccc3c(ccn3C)c2)c(O)cc1O [GANETESPIB],area under dose-response curve,SUDIPGXIII [1],215
same,area under dose-response curve,iAstro [2],164
same,area under dose-response curve,SUDIPGXIX [3],395
same,area under dose-response curve,HGGX6 [4],153
same,area under dose-response curve,HGGX2 [5],257
same,area under dose-response curve,SUDIPGIV [6],238
same,area under dose-response curve,DIPGX37 [7],306
same,area under dose-response curve,SUDIPGXXI,432
same,area under dose-response curve,SUDIPGXVII [8],242
same,area under dose-response curve,HABS [9],329
same,area under dose-response curve,HGGX39 [10],271
same,area under dose-response curve,DIPGX9 [11],440
same,area under dose-response curve,SUDIPGVI [12],158
same,area under dose-response curve,DIPGX29 [13],195
same,area under dose-response curve,DIPGX7 [14],106
same,area under dose-response curve,HGGX42 [15],226
same,maximal growth inhibition,SUDIPGXIII [16],56%
same,maximal growth inhibition,SUDIPGXIX [17],87.3%
same,maximal growth inhibition,HGGX6 [18],39.8%
same,maximal growth inhibition,SUDIPGIV [19],58.4%
same,maximal growth inhibition,DIPGX37 [20],81.5%
same,maximal growth inhibition,SUDIPGXVII [21],61.6%
same,maximal growth inhibition,HABS [22],84.5%
same,maximal growth inhibition,HGGX39 [23],77.3%
same,maximal growth inhibition,DIPGX9 [24],114%
same,maximal growth inhibition,SUDIPGVI [25],41.2%
same,maximal growth inhibition,DIPGX29 [26],51.8%
same,maximal growth inhibition,DIPGX7 [27],44.1%
same,EC50 (log10 M),SUDIPGXIII [28],-7.84
same,EC50 (log10 M),SUDIPGXIX [29],-8.72
same,EC50 (log10 M),HGGX6 [30],-7.85
same,EC50 (log10 M),SUDIPGIV [31],-8.08
same,EC50 (log10 M),DIPGX37 [32],-7.76
same,EC50 (log10 M),SUDIPGXVII [33],-7.92
same,EC50 (log10 M),HABS [34],-7.9
same,EC50 (log10 M),HGGX39 [35],-7.51
same,EC50 (log10 M),DIPGX9 [36],-7.98
same,EC50 (log10 M),SUDIPGVI [37],-7.86
same,EC50 (log10 M),DIPGX29 [38],-7.76
same,EC50 (log10 M),DIPGX7 [39],-6.1
N#CN=C(NCCCCCCOc1ccc(Cl)cc1)Nc1ccncc1 [GMX-1778],area under dose-response curve,SUDIPGXIII [1],335
same,area under dose-response curve,iAstro [2],314
same,area under dose-response curve,SUDIPGXIX [3],444
same,area under dose-response curve,HGGX6 [4],288
same,area under dose-response curve,HGGX2 [5],426
same,area under dose-response curve,SUDIPGIV [6],333
same,area under dose-response curve,DIPGX37 [7],311
same,area under dose-response curve,SUDIPGXXI,587
same,area under dose-response curve,SUDIPGXVII [8],245
same,area under dose-response curve,HABS [9],275
same,area under dose-response curve,HGGX39 [10],287
same,area under dose-response curve,DIPGX9 [11],267
same,area under dose-response curve,SUDIPGVI [12],354
same,area under dose-response curve,DIPGX29 [13],465
same,area under dose-response curve,DIPGX7 [14],380
same,area under dose-response curve,HGGX42 [15],315
same,maximal growth inhibition,SUDIPGXIII [16],94.5%
same,maximal growth inhibition,SUDIPGXIX [17],127%
same,maximal growth inhibition,HGGX6 [18],74.7%
same,maximal growth inhibition,HGGX2 [40],103%
same,maximal growth inhibition,SUDIPGIV [19],104%
same,maximal growth inhibition,DIPGX37 [20],77.2%
same,maximal growth inhibition,SUDIPGXVII [21],71.3%
same,maximal growth inhibition,HABS [22],76%
same,maximal growth inhibition,HGGX39 [23],74.6%
same,maximal growth inhibition,DIPGX9 [24],63.3%
same,maximal growth inhibition,SUDIPGVI [25],93.6%
same,maximal growth inhibition,DIPGX7 [27],114%
same,maximal growth inhibition,HGGX42 [41],90.6%
same,EC50 (log10 M),SUDIPGXIII [28],-7.54
same,EC50 (log10 M),SUDIPGXIX [29],-7.5
same,EC50 (log10 M),HGGX6 [30],-7.85
same,EC50 (log10 M),HGGX2 [42],-8.25
same,EC50 (log10 M),SUDIPGIV [31],-7.21
same,EC50 (log10 M),DIPGX37 [32],-8.03
same,EC50 (log10 M),SUDIPGXVII [33],-7.44
same,EC50 (log10 M),HABS [34],-7.62
same,EC50 (log10 M),HGGX39 [35],-7.85
same,EC50 (log10 M),DIPGX9 [36],-8.21
same,EC50 (log10 M),SUDIPGVI [37],-7.79
same,EC50 (log10 M),DIPGX7 [39],-7.31
same,EC50 (log10 M),HGGX42 [43],-7.48
CC[C@]1(O)C[C@H]2CN(CCc3c([nH]c4ccccc34)[C@@](C(=O)OC)(c3cc4c(cc3OC)N(C=O)[C@H]3[C@@](O)(C(=O)OC)[C@H](OC(C)=O)[C@]5(CC)C=CCN6CC[C@]43[C@@H]65)C2)C1 [VINCRISTINE],area under dose-response curve,SUDIPGXIII [1],123
same,area under dose-response curve,iAstro [2],127
same,area under dose-response curve,SUDIPGXIX [3],253
same,area under dose-response curve,HGGX6 [4],99.2
same,area under dose-response curve,HGGX2 [5],345
same,area under dose-response curve,SUDIPGIV [6],284
same,area under dose-response curve,DIPGX37 [7],189
same,area under dose-response curve,SUDIPGXXI,606
same,area under dose-response curve,SUDIPGXVII [8],187
same,area under dose-response curve,HABS [9],200
same,area under dose-response curve,HGGX39 [10],152
same,area under dose-response curve,DIPGX9 [11],292
same,area under dose-response curve,SUDIPGVI [12],256
same,area under dose-response curve,DIPGX29 [13],163
same,area under dose-response curve,DIPGX7 [14],212
same,area under dose-response curve,HGGX42 [15],103
same,maximal growth inhibition,SUDIPGXIII [16],64%
same,maximal growth inhibition,iAstro [44],61.4%
same,maximal growth inhibition,SUDIPGXIX [17],98.2%
same,maximal growth inhibition,HGGX2 [40],92.8%
same,maximal growth inhibition,SUDIPGIV [19],101%
same,maximal growth inhibition,SUDIPGVI [25],77.9%
same,maximal growth inhibition,DIPGX7 [27],95.3%
same,maximal growth inhibition,HGGX42 [41],97.3%
same,EC50 (log10 M),SUDIPGXIII [28],-5.77
same,EC50 (log10 M),iAstro [45],-5.97
same,EC50 (log10 M),SUDIPGXIX [29],-6.46
same,EC50 (log10 M),HGGX2 [42],-7.75
same,EC50 (log10 M),SUDIPGIV [31],-6.56
same,EC50 (log10 M),SUDIPGVI [37],-7.28
same,EC50 (log10 M),DIPGX7 [39],-5.71
same,EC50 (log10 M),HGGX42 [43],-4.84
